From patent EP0255343A2, “L-aspartylfenchylamino alcohol derivatives” (priority 1986, dated 1988)
Residues, ends and D or L forms follow the SMILES beside them.

Columns and labels:
[1] = at 80°C and at a pH of 4; cited from earlier work
[2] = Sweetness threshold values determined by a limit method by a panel of 5 skilled flavorists; format: in vivo; conditions: for Taste intensity Threshold Values (%): dissolved in water, limit method, panel of 5 skilled flavorists; for Degree of Sweetness (time): relative to sucrose = 1

Compound	stability [1]	Taste intensity Threshold Values (%) [2] [%]	Degree of Sweetness (time) [2] [time]
COC(=O)C(NC(=O)[C@@H](N)CC(=O)O)C(=O)OC1C2(C)CCC(C2)C1(C)C (mixture of isomers) [L-aspartyl-DL-aminomalonic acid methyl fenchyl diester]	lower than APM		
COC(=O)[C@H](Cc1ccccc1)NC(=O)[C@@H](N)CC(=O)O [APM, L-aspartyl-L-phenylalanine methyl ester] (H-Asp-Phe-OMe)		0.004	150
OC[C@H]1O[C@@](CO)(O[C@H]2O[C@H](CO)[C@@H](O)[C@H](O)[C@H]2O)[C@@H](O)[C@@H]1O [Sucrose, sucrose]		0.6	
3-N-(L-aspartyl)amino-4-fenchyl-2-butanol [Compound B]		0.0012	500
3-N-(L-aspartyl)amino-1-fenchyl-2-butanol [Compound A]		0.001	600
